Usually viability, T/C stands for the ratio of treated to control. For orientation: IC50 means the concentration needed to halve the response being measured.

Molecules are shown by their SMILES. “And” between values parts separate entries of the source, which are not always exact repeats. Identical values can stand only once.

The test system of the assay is 958667-338-R-J2-PDC tumor spheroids viability. The assay can be described thus: Anticancer human tumor 958667-338-R-J2-PDC patient-derived colon adenocarcinoma cell line growth inhibition [PI3K]. The conditions noted are these: spheroids with HUVEC and MSC; for viability, T/C: stronger effect = lower value. The text has this:
Combinatorial screen of targeted agents with the PI3K inhibitors inavolisib, alpelisib, duvelisib, and copanlisib in multi-cell type tumor spheroids
A high-throughput screen of multi-cell type tumor spheroids was designed to identify active combinations of targeted small molecules and PI3K pathway inhibitors. Complex spheroids include a stromal component modeled by human endothelial cells (HUVEC) and fibroblasts modeled by human mesenchymal stem cells (MSCs). The concentration ranges selected for each drug and investigational agent were based upon clinically achievable concentrations if the clinical Cmax of the agent was known.
Compounds. The drugs and investigational agents: inavolisib (NSC800729), alpelisib (NSC765974), duvelisib (NSC772469), copanlisib (NSC816437), ipatasertib (NSC767898), afuresertib (NSC778305), talazoparib (NSC767125), sapanisertib (NSC764658), selumetinib (NSC741078), tovorafenib (DAY101, NSC766906), vemurafenib (NSC761431), ravoxertinib (NSC781343), sotorasib (NSC818433), MRTX1133 (NSC 836407), abemaciclib (NSC 768073), palbociclib (NSC758247), venetoclax (NSC 766270), SY5609 (NSC837396), enzalutamide (NSC755605), and darolutamide (NSC825331), were obtained from the National Cancer Institute (NCI) Developmental Therapeutics Program Chemical Repository. The FDA-approved anticancer drug set is available from the NCI Developmental Therapeutics Program. […] The stock solutions were prepared in dimethyl sulfoxide (DMSO, Sigma-Aldrich, St. Louis, MO, cat. D2650) at 800-fold the tested concentration and stored at -70 degrees C prior to their use. All drugs and investigational agents were tested over a range starting from a high concentration at or near the clinical Cmax and decreasing in half-log increments. If the clinical Cmax for an agent had not been determined, the highest concentration tested was 10 microM.
Cell Culture. All cells were maintained in an incubator at 37 degrees C and 5% CO2 with 95% humidity. The PDC lines were cultured according to standard operating procedures established by the NCI PDMR (https://pdmr.cancer.gov/sops/default.htm). All PDCs were thawed and cultured in Matrigel-coated flasks prepared with a working solution of 1X Ham's F-12 nutrient mix, without supplementation (Invitrogen, Waltham, MA, cat. 11765054), 100 U/mL penicillin-streptomycin (Invitrogen, cat. 15140122), and 2.5% Matrigel (Corning Inc., Corning, NY, cat. 354248) for the first three passages. The 354836-022-R-J1-PDC, 475296-252-R-J1-PDC, and 997726-040-R-J2-PDC lines were cultured in 6A media, which includes advanced DMEM/F-12 (Thermo Fisher Scientific, cat. 12634028), 10 mM HEPES (Thermo Fisher Scientific, cat. 15630080), 1X GlutaMAX supplement (Thermo Fisher Scientific, cat. 35050061), 0.1 mg/mL primocin (InvivoGen, San Diego, CA, cat. ant-pm-2), 10% defined fetal bovine serum, heat inactivated (HyClone Laboratories Inc., Logan, UT, cat. SH30070.03HI), 50% L-WRN conditioned media (ATCC, cat. CRL-3276), 1.25 mM N-Acetyl-L-cysteine (Sigma-Aldrich, cat. A9165), 10 mM nicotinamide (Sigma-Aldrich, cat. N0636), 1X B-27 supplement (Thermo Fisher Scientific, cat. 17504044), 1X N-2 supplement (Thermo Fisher Scientific, cat. 17502048), and 10 microM Y-27632 dihydrochloride (Tocris Bioscience, Bristol, United Kingdom, cat. 1254). The 624824-186-R-J2-PDC line was cultured in 6C/Colon 1B media, which includes all 6A media components plus 50 ng/mL human EGF recombinant protein (Thermo Fisher Scientific, cat. PHG0311). […]
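Also: spheroids exposed to compounds for seven days before readout.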

Consider `C=CC(=O)N1CCN(c2nc(=O)n(-c3c(C)ccnc3C(C)C)c3nc(-c4c(O)cccc4F)c(F)cc23)C(C)C1` (stereo not given), for which the viability, T/C is 108% [middle of 4 runs] (compound 0.1 µM), 103% [middle of 4 runs] (compound 0.316 µM), 114% [middle of 4 runs] (compound 1 µM) and 113% [middle of 4 runs] (compound 3.16 µM). Where the note is “curve of compound”, the IC50 was greater than 10000 nM.

With `CC1(C)CCC(CN2CCN(c3ccc(C(=O)NS(=O)(=O)c4ccc(NCC5CCOCC5)c([N+](=O)[O-])c4)c(Oc4cnc5[nH]ccc5c4)c3)CC2)=C(c2ccc(Cl)cc2)C1`, the viability, T/C was 106% [middle of 4 runs] (compound 0.316 µM); 109% (2×) and 87% and 112% (compound 1 µM); 98.7% [middle of 4 runs] (compound 3.16 µM). Further, the 50% inhibitory concentration (IC50) (curve of compound) is > 10000 nM and 6880 nM and 6970 nM.

As to `CCCS(=O)(=O)Nc1ccc(F)c(C(=O)c2c[nH]c3ncc(-c4ccc(Cl)cc4)cc23)c1F`, the viability, T/C by setting is: (compound 0.1 µM) 94.2% and 87.7% and 113% (2×); (compound 0.316 µM) 107% [middle of 4 runs]; (compound 1 µM) 114% [middle of 4 runs]; (compound 3.16 µM) 116% [middle of 4 runs]; (compound 10 µM) 10.9% [middle of 4 runs]. Moreover, the IC50 (curve of compound) was 6.27 µM [middle of 4 runs].

With `Cc1nc(NC(=O)N2CCCC2C(N)=O)sc1-c1ccnc(C(C)(C)C(F)(F)F)c1` (stereo not given), the viability, T/C is 71.5% [middle of 8 runs] (compound 3.16 µM) and 66% [middle of 8 runs] (compound 10 µM). Where the note is “compound alone, run of 06/12/2023”, the IC50 is greater than 10000 nM.

For the compound `Cn1cnc2c(F)c(Nc3ccc(Br)cc3Cl)c(C(=O)NOCCO)cc21` + CC(Nc1ccc2c(c1)OCCn1cc(N3C(=O)OCC3C(F)F)nc1-2)C(N)=O, the IC50 reads like this: (curve of first compound, second compound 0.00316 µM) 436 nM; (curve of first compound, second compound 0.01 µM) 358 nM; (curve of first compound, second compound 0.0316 µM) 174 nM; (curve of first compound, second compound 0.1 µM) 87.5 nM; (curve of first compound, second compound 0.316 µM) 66.9 nM; (curve of first compound, second compound 1 µM) less than 9.49 nM. For the same compound, the viability, T/C (second compound 0.00316 µM, first compound 0.00949 µM) was 86.6%; the viability, T/C (second compound 0.00316 µM, first compound 0.03 µM) was 74.4%; the viability, T/C (second compound 0.00316 µM, first compound 0.0949 µM) is 95.9%; the viability, T/C (second compound 0.00316 µM, first compound 0.3 µM) was 57.2%; the viability, T/C (second compound 0.00316 µM, first compound 0.949 µM) was 32%; the viability, T/C (second compound 0.00316 µM, first compound 3 µM) is 16.8%. For the same compound, the viability, T/C by setting is: (second compound 0.01 µM, first compound 0.00949 µM) 92.2%; (second compound 0.01 µM, first compound 0.03 µM) 101%; (second compound 0.01 µM, first compound 0.0949 µM) 73%; (second compound 0.01 µM, first compound 0.3 µM) 54.4%; (second compound 0.01 µM, first compound 0.949 µM) 30%; (second compound 0.01 µM, first compound 3 µM) 12.9%. The viability, T/C is 88.6% (second compound 0.0316 µM, first compound 0.00949 µM); 76.3% (second compound 0.0316 µM, first compound 0.03 µM); 60.1% (second compound 0.0316 µM, first compound 0.0949 µM); 42.4% (second compound 0.0316 µM, first compound 0.3 µM); 20.8% (second compound 0.0316 µM, first compound 0.949 µM); 9.82% (second compound 0.0316 µM, first compound 3 µM). Further, the viability, T/C by setting is: (second compound 0.1 µM, first compound 0.00949 µM) 78.7%; (second compound 0.1 µM, first compound 0.03 µM) 57.5%; (second compound 0.1 µM, first compound 0.0949 µM) 57.5%; (second compound 0.1 µM, first compound 0.3 µM) 25.3%; (second compound 0.1 µM, first compound 0.949 µM) 17%; (second compound 0.1 µM, first compound 3 µM) 8.31%. Besides, the viability, T/C is, setting by setting: (second compound 0.316 µM, first compound 0.00949 µM) 59.7%; (second compound 0.316 µM, first compound 0.03 µM) 59.5%; (second compound 0.316 µM, first compound 0.0949 µM) 46.9%; (second compound 0.316 µM, first compound 0.3 µM) 23.7%; (second compound 0.316 µM, first compound 0.949 µM) 15.7%; (second compound 0.316 µM, first compound 3 µM) 5.79%. Besides, the viability, T/C is, setting by setting: (second compound 1 µM, first compound 0.00949 µM) 44.6%; (second compound 1 µM, first compound 0.03 µM) 43%; (second compound 1 µM, first compound 0.0949 µM) 34.8%; (second compound 1 µM, first compound 0.3 µM) 22.8%; (second compound 1 µM, first compound 0.949 µM) 11.5%; (second compound 1 µM, first compound 3 µM) 3.12%.

These data come from PubChem BioAssay AID1963963 (Molecular Pharmacology Branch, DTP, NCI, 2024).
